From patent US20050282863A1, “Novel-N substituted dihydrobenzothiepino, dihydrobenzoxepino and tetrahydro benzocyclohepta indoles as selective estrogen receptor modulators” (Council of Scientific & Industrial Research, priority 2004, published 2005)
Where two headings read alike, the source gives them in different places.

Assays:
[1] = system: chick fetal bones in culture; assay: Inhibition in PTH-induced resorption of 45Ca from chick fetal bones in culture (antiresorptive activity in vitro); assay type: cell-based; settings: Gallus gallus, 96 h, 100 μM; PTH-induced 45Ca resorption, 96 h culture; read-out: T/C ratio
Description: 5 μl of each concentration are used for evaluation of antiresorptive activity in vitro. In control experiments, 5 μl of appropriate solvent is used in lieu of the test compound. Femur bones are isolated from chick embryos on day 11 post-ovulation. The adhering soft connective tissue is completely removed. Each femur bone is then placed in a drop of phosphate buffered saline (PBS) and is transferred to BGJb culture medium containing ^45CaCl2 and incubated for 2 h. Labeled femur bones are washed 2-3 times with PBS and transferred to BGJb medium containing parathyroid hormone and cultured for 96 h in the presence or absence of the compound of invention or the vehicle in BGJb medium. Contralateral femur of each fetus serves as corresponding control. Culture medium with the respective treatment in each well is changed after 48 h. On termination of the culture at 96 h, bones are transferred to 0.1 N HCl for 24 h. Radioactivity due to ^45Ca in the spent medium collected at 48 and 96 h of culture and HCl extract at 96 h of culture is quantified by Liquid Scintillation Spectrophotometer in 10 ml of the scintillation fluid. Bone resorbing activity is expressed as percentage of ^45Ca released into the culture medium and the effect of the compound of invention as percent of the corresponding contra-lateral control or T/C ratio as shown below: [formula]
Appropriate solvents are selected from solvents like water, physiological saline, phosphate buffered saline, phosphate buffer, DMSO alone or in a suitable combination thereof.

adult female rats = assay: Post-coital antifertility efficacy in adult female rats; assay type: in vivo, rat; settings: oral; for responders at 10 mg/kg: Rattus norvegicus, 240 h
Text: Adult female rats are caged overnight with coeval males of proven fertility and their vaginal smears are checked on the following morning. The day of presence of spermatozoa in the vaginal smear is taken as day 1 of pregnancy. Mated rats are isolated and randomized into various treatment groups and treated orally with the compound of invention or the vehicle on days 1-7/1-5 post-coitum. Animals of all the groups are autopsied on day 10 post-coitum and number and status of corpora lutea and implantation sites in each rat are recorded. The compounds of the present invention are considered active if there is complete absence of implantations in the uterus of all rats, in comparison to presence of normal implantations in the uterus of rats of vehicle control group.

[2] = system: immature ovariectomized rats; assay: Estrogen agonistic activity: increase in uterine weight in immature ovariectomized rats; assay type: in vivo, rat; settings: 3 days, percent of ovariectomized + vehicle group; for change in vivo at 10 mg/kg / change in vivo at 3 mg/kg: Rattus norvegicus, 72 h; for change in vivo at 3 mg/kg: daily dose 3 mg/kg
Description: Twenty-one-day-old immature female rats are bilaterally ovariectomized under light ether anaesthesia and, after post-operative rest for 7 days, are randomized into different treatment groups. Each rat receives the compound of the invention once daily for 3 consecutive days on days 28-30 of age. A separate group of animals receiving only the vehicle for similar duration serves as control. A autopsy 24 h after the last treatment on day 31 of age, vaginal smear of each rat is taken and uterus is carefully exised, gently blotted, weighed and fixed for histology and histomorphometry using image analysis. Premature opening of vagina, cornification of vaginal epitelium, increase in uterine fresh weight, total uterine and endometrial area and uterine luminal epithelial cell height are taken as parameters for evaluation of estrogen agonistic activity in comparision to rats of vehicle control group.

[3] = system: immature ovariectomized rats; assay: Estrogen antagonistic activity: inhibition in 17α-ethynylestradiol induced uterine weight gain in immature ovariectomized rats; assay type: in vivo, rat; settings: daily dose 10 mg/kg with 0.02 mg/kg 17-alfa-ethynylestradiol, 3 days; for inhibition in vivo at 10 mg/kg/day: Rattus norvegicus, 72 h, read-out: Percent inhibition in 17α-ethynylestradiol induced uterine weight gain
Description: Twenty-one-day-old immature female rats are bilaterally ovariectomized under light ether anaesthesia and after post-operative rest for 7 days, are randomized into different treatment groups. Each rat receives the compounds of the invention and 0.02 mg/kg dose of 17-alfa-ethynylestradiol in 10% ethanol-distilled water once daily for 3 consecutive days on days 28-30 of age. A separate group of animals receiving only 17-alfa-ethynylestradiol (0.02 mg/kg) in 10% ethanol-distilled water for similar duration are used for comparison. At autopsy on day 31 of age, vaginal smear of each rat is taken and uterus is carefully excised, gently blotted, weighed and fixed for histology and histomorphometry using image analysis. Inhibition in 17-alfa-ethynylestradiol-induced premature opening of vagina, cornification of vaginal epithelium, increase in uterine fresh weight, total uterine and endometrial area and uterine luminal epithelial cell height are taken as parameters for evaluation of estrogen antagonistic activity.

MCF-7 cells = assay: Antiproliferative/cytotoxic activity in cultured MCF-7 cells (SRB assay); assay type: cell-based; settings: Homo sapiens, MCF7, 48 h, MCF-7, 48 h
Description: The procedure is based on the following methods: New calorimetric assay for anticancer drug screening, Skehan et al., J Natn Cancer Inst, 82,1107, 1990 and Feasibility of a high-flux anticancer drug screen using a diverse panel of cultured human tumor cell lines, J Natn Cancer Inst, 83,757, 1991.
A fully confluent flask of MCF-7 cells in trypsinized and 10^4 cells/well are plated in a 96 welled flat bottomed plate in 200 μl Minimum Essential Medium (MEM), pH 7.4 and allowed to attach for 24 h at 37° C. in a humidified CO2 incubator. Subsequently, the compound of invention dissolved in DMSO or ethanol is added at a specified concentration and further incubated for 48 h as before. The cells are then fixed in 50 μl cold 50% TCA and incubated for 1 h at 4° C. The supernatant is discarded and the plate is washed five times with deionized water and air-dried. 100 μl of 0.4% (w/v) Sulforhodamine B (SRB) in 1% acetic acid is added to each well and incubated at room temperature for 30 minutes. Unbound SRB is removed by five washes with chilled 1% acetic acid and the plate is air-dried. 200 μl of unbuffered 10 mM Tris base is added to solublize the bound stain for 5 minutes at room temperature and O.D. is read at 560 nm in a plate reader. The graph is plotted between O.D. and concentration and LC50 is calculated with respect to tamoxifen, which is used as a positive control.

estrogen receptors = molecular target: T1, estrogen receptors (Rattus norvegicus, UniProt P06211); assay: Relative binding affinity (RBA) to estrogen receptors, 3H-estradiol competition assay; parameters: key: % of 17-beta-estradiol binding affinity (estradiol = 100); settings: relative to 17-beta-estradiol (=100, percentage value); rat uterine cytosol, 3H-E2, 18 hrs at 4° C.
T1 construct: Aliquot of uterine cytosol (200 μl; 2 uteri per ml) prepared in TEA buffer; from tissue; host or cells: uterine cytosol of immature estradiol-primed 20-21 day old rats
T1 sequence (P06211 1-600): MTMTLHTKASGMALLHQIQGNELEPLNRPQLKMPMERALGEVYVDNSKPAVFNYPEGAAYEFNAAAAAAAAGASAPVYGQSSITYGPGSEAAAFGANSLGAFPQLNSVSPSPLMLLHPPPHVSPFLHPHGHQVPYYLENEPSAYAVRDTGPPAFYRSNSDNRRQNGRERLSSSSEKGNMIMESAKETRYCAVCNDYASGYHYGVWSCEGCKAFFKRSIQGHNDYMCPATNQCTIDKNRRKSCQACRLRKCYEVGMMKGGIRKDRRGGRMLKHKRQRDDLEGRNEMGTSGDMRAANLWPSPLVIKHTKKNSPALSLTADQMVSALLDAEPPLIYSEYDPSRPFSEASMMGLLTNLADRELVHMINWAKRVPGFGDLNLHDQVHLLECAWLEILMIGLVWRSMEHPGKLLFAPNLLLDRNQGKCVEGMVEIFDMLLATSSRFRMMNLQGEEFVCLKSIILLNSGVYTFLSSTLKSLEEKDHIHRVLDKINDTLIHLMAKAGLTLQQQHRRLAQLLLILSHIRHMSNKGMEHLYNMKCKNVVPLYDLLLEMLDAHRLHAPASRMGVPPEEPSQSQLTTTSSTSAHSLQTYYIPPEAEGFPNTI
Description: The relative binding affinity (RBA) of the compounds for estrogen receptor is determined by competition assay, employing ^3H-estradiol (^3H-E2) as the radioligand. The test ligands and ^3H-E2 are incubated at 4° C. with cystol estrogen receptors obtained from uteri of immature estradoil-primed (1 μg/rat 24 h before autopsy) 20-21 days old rats. Aliquot of uterine cytosol (200 μl; 2 uteri per ml) prepared in TEA buffer (10 mM Tris, 1.5 mM EDTA, 0.02% sodium azide, pH 7.4) are incubated in duplicate with a fixed concentration of ^3H-E2 in the absence or presence of various concentrations of the competitor substance dissolved in 30 μl of the TEA buffer containing DMF as co-solvent (final concentration of DMF in the incubation mixture never exceeded 5%) for 18 hrs at 4° C. At the end of this period, dextran coated charcoal (5% Norit 0.5% dextran) suspension in 100 μl of TEA buffer is added to each tube, briefly vortexed and allowed to stand for 15 minutes at 4° C. The mixture is centrifuged at 800 g for 10 minutes and the supernatants counted for radioactivity in 10 ml of a dioxane-based scintillation fluid. RBA of the text compound is computed from a graph plotted between percent bound radioactivity verses log concentration of the test substance. […] This when multiplied with 100 gives the percentage value designated as RBA.

[4] = daily dose 10 mg/kg, days 1-7 post-coitum

Compound | activity at 100 µM [1] [%] | % Efficacy (adult female rats; [4]) | change in vivo at 10 mg/kg ([2]; daily dose 10 mg/kg) [%] | inhibition in vivo at 10 mg/kg/day [3] [%] | CC50 (MCF-7 cells; read-out: LC50, Test-4) [µM] | RBA (estrogen receptors) | further results
c1ccc2c(c1)SCCc1c-2n(Cc2ccc(OCCN3CCCCC3)cc2)c2ccccc12 [Example number 39, 12-[4-(2-Piperidin-1-yl-ethoxy)benzyl]-6,7-dihydro-12H-benzothiepino [5,4-b]indole] | 85 | Inactive | 83.3 | 3.7 |  |  | 
c1ccc2c(c1)SCCc1c-2n(CCCCCN2CCCCC2)c2ccccc12 [Example number 11, 12-[5-(Piperidine-1-yl)pentyl]-6,7-dihydro-12H-benzothiepino [5,4-b]indole] | 77 |  | 50 | 2 | 8.3 |  | responders at 10 mg/kg (adult female rats; [4]): 50%
CCCCN(C)CCCCCn1c2c(c3ccccc31)CCSc1ccccc1-2.O=C(O)/C=C/C(=O)O [Example number 16, 12-[5-(N-butylmethylamino)pentyl]-6,7-dihydro-12H-benzothiepino [5,4-b]indole fumaric acid Salt] |  |  |  |  |  | <0.001 | Percent increase in uterine weight ([2]; daily dose 10 mg/kg): 2.00%; Percent inhibition in 17α-ethynylestradiol induced uterine weight gain [3]: 2.00%
Oc1ccc2c(c1)SCCc1c-2n(CCCCCN2CCCCC2)c2ccc(O)cc12 [Example number 35, 3,9-Dihydroxy-12-[5-(piperidine-1-yl)pentyl]-6,7-dihydro-12H-benzothiepino [5,4-b]indole] | 99 | Inactive |  |  | 40 | <0.001 | 
c1ccc2c(c1)SCCc1c-2n(CCCCCN2CCCC2)c2ccccc12 [Example number 12, 12-[5-(Pyrrolidine-1-yl)pentyl]-6,7-dihydro-12H-benzothiepino [5,4-b]indole] | 78 | Inactive |  |  |  | 0.88 | CC50 (MCF-7 cells; read-out: LC50, Test-1): 63 µM; change in vivo at 3 mg/kg [2]: 3.4%
c1ccc2c(c1)OCCc1c-2n(CCCCCCN2CCCCC2)c2ccccc12 [Example number 51, 12-[6-(Piperidine-1-yl)hexyl]-6,7-dihydro-12H-benzoxepino[5,4-b]indole] |  | Inactive | 20 | 14 |  | 0.059 | CC50 (MCF-7 cells; read-out: LC50, Test-1): 22.3 µM; CC50 (MCF-7 cells; read-out: LC50, Test-3): 12.8 µM; change in vivo at 3 mg/kg [2]: 21.9%
Oc1ccc2c(c1)SCCc1c-2n(CCCCCN2CCCCC2)c2ccccc12 [Example number 24, 3-Hydroxy-12-[5-(piperidine-1-yl)pentyl]-6,7-dihydro-12H-benzothiepino [5,4-b]indole] | 78 | Inactive |  |  | 27 | 10.75 | 
Oc1ccc2c(c1)SCCc1c-2n(CCCCCN2CCCC2)c2ccc(O)cc12 [Example number 36, 3,9-Dihydroxy-12-[5-(pyrrolidine-1-yl)pentyl]-6,7-dihydro-12H-benzothiepino [5,4-b]indole] | 118 |  |  |  | 60 | <0.001 | 
c1ccc2c(c1)OCCc1c-2n(Cc2ccc(OCCN3CCCCC3)cc2)c2ccccc12 [Example number 56, 12-[4-(2-Piperidin-1-yl-ethoxy)benzyl]-6,7-dihydro-12H-benzoxepino[5,4-b]indole] | 103 | Inactive | 15.4 | 12.8 |  |  | 
c1ccc2c(c1)OCCc1c-2n(CCCCCN2CCCCC2)c2ccccc12 [Example number 49, 12-[5-(Piperidine-1-yl)pentyl]-6,7-dihydro-12H-benzoxepino[5,4-b]indole] | 63 |  |  |  |  |  | responders at 10 mg/kg (adult female rats; [4]): 100%; % Efficacy (adult female rats; daily dose 5 mg/kg, days 1-5 post-coitum): Inactive
